The record followed here is patent publication US11591350B2, “Modulators of cystic fibrosis transmembrane conductance regulator” (Vertex Pharmaceuticals Incorporated, priority 2019, dated 2023).

The term EC50 denotes the concentration at which the effect is half-maximal. Low readings indicate greater potency, high ones weaker potency.

The target of the experiment is CFTR (Homo sapiens, UniProt P13569). Briefly: Membrane potential dye assay (FLIPR Tetra) of CFTR-mediated chloride transport in enteroid cells. The note with it: human intestinal epithelial enteroid cells; test compound 18-24 hours; acute 10 μM forskolin and 300 nM Compound III. It counts as cell-based. From the text:
Enteroid Cell Harvesting and Seeding
Membrane Potential Dye Assay

SMILES strings stand for the structures.

CFTR, sequence (P13569 with tags, fused parts or gaps DEL508-508): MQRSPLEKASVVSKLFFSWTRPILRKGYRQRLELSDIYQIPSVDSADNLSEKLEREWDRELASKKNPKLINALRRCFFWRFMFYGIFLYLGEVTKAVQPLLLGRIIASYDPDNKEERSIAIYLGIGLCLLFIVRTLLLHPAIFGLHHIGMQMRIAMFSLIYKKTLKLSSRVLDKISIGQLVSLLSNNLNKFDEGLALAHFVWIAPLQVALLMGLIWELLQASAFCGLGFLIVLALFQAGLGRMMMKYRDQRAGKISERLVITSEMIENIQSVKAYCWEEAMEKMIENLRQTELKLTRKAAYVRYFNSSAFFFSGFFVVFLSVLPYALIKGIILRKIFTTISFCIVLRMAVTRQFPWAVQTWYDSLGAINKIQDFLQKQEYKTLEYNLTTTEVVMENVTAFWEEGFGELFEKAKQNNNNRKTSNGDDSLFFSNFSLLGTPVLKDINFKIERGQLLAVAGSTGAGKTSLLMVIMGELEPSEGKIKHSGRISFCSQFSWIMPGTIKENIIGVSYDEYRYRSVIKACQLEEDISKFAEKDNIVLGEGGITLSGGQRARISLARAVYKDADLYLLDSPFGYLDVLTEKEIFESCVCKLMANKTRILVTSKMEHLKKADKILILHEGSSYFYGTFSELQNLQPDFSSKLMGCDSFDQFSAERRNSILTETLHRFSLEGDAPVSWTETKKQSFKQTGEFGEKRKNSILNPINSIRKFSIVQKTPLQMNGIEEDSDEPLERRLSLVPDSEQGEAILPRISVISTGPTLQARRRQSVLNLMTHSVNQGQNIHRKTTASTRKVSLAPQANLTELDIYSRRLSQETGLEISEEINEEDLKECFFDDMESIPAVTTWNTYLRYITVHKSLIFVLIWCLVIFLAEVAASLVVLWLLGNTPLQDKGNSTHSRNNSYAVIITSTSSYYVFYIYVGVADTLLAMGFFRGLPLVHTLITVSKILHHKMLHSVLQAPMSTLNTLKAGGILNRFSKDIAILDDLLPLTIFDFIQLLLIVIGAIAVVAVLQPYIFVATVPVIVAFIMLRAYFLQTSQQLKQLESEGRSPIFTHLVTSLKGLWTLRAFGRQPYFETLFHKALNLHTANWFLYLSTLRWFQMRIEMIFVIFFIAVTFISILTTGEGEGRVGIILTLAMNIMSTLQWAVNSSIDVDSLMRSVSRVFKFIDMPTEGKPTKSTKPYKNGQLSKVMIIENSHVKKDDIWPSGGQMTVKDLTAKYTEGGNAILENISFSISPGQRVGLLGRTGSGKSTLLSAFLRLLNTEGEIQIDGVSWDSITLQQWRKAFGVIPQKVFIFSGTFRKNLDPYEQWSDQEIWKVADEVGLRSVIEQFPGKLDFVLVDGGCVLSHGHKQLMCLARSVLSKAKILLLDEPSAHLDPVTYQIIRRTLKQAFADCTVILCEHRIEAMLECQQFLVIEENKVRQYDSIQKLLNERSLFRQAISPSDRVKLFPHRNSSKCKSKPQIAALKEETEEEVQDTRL

On to `CC1(C)C[C@@H]2CCCNc3cccc(n3)S(=O)(=O)NC(=O)c3ccc(-n4ccc(OCCC5([Si](C)(C)C)CC5)n4)nc3N1C2` [(1-3)], for which the EC50 was below 1000 nM. Under `CC1(C)C[C@@H]2CCCNc3cccc(n3)S(=O)(=O)NC(=O)c3ccc(-n4ccc(OC[Si](C)(C)C5(C(F)(F)F)CC5)n4)nc3N1C2` [Compound (1-1), (14S)-8-[3-({dimethyl[1-(trifluoromethyl)cyclopropyl]silyl}methoxy)-1H-pyrazol-1-yl]-12,12-dimethyl-2λ^6-thia-3,9,11,18,23-pentaazatetracyclo[17.3.1.111,14.05,10]tetracosa-1(22),5(10),6,8,19(23),20-hexaene-2,2,4-trione] stands below 1000 nM; under `CC1(C)C[C@@H]2CCCNc3cccc(n3)S(=O)(=O)NC(=O)c3ccc(-n4ccc(OC[Si](C)(C)C(C)(C)C)n4)nc3N1C2` [Compound (1-2), (14S)-8-{3-[(tert-butyldimethylsilyl)methoxy]-1H-pyrazol-1-yl}-12,12-dimethyl-2λ^6-thia-3,9,11,18,23-pentaazatetracyclo[17.3.1.111,14.05,10]tetracosa-1(23),5(10),6,8,19,21-hexaene-2,2,4-trione], below 1000 nM; under `CC(C)(C)CC[Si](C)(C)c1ccn(-c2ccc3c(n2)N2C[C@@H](CCCNc4cccc(n4)S(=O)(=O)NC3=O)CC2(C)C)n1` [Compound (1-4), (14S)-8-{3-[(3,3-dimethylbutyl)dimethylsilyl]-1H-pyrazol-1-yl}-12,12-dimethyl-2λ^6-thia-3,9,11,18,23-pentaazatetracyclo[17.3.1.111,14.05,10]tetracosa-1(23),5(10),6,8,19,21-hexaene-2,2,4-trione], below 1000 nM. In the case of `CC1(C)C[C@@H]2CCCNc3cccc(n3)S(=O)(=O)NC(=O)c3ccc(-n4ccc(OCCC[Si](C)(C)C)n4)nc3N1C2` [Compound (1-6), (14S)-12,12-dimethyl-8-{3-[3-(trimethylsilyl)Propoxy]-1H-pyrazol-1-yl}-2λ^6-thia-3,9,11,18,23-pentaazatetracyclo[17.3.1.111,14.05,10]tetracosa-1(22),5(10),6,8,19(23),20-hexaene-2,2,4-trione], the EC50 was below 1000 nM. Under `CC1(C)C[C@@H]2CCCNc3cccc(n3)S(=O)(=O)NC(=O)c3ccc(-n4ccc(OCC[Si](C)(C)C)n4)nc3N1C2` [Compound (1-7), (14S)-12,12-dimethyl-8-{3-[2-(trimethylsilyl)ethoxy]-1H-pyrazol-1-yl}-2λ^6-thia-3,9,11,18,23-pentaazatetracyclo[17.3.1.111,14.05,10]tetracosa-1(22),5(10),6,8,19(23),20-hexaene-2,2,4-trione] stands below 1000 nM; under `CC1(C)C[C@@H]2CCCNc3cccc(n3)S(=O)(=O)NC(=O)c3ccc(-n4ccc(OC[Si](C)(C)C)n4)nc3N1C2` [Compound (1-8), (14S)-12,12-dimethyl-8-{3-[(trimethylsilyl)methoxy]-1H-pyrazol-1-yl}-2λ^6-thia-3,9,11,18,23-pentaazatetracyclo[17.3.1.111,14.05,10]tetracosa-1(22),5(10),6,8,19(23),20-hexaene-2,2,4-trione], below 1000 nM; under `CC1(C)C[C@@H]2CCCNc3cccc(n3)S(=O)(=O)NC(=O)c3ccc(-n4ccc(O[CH2][Ge]([CH3])([CH3])[CH3])n4)nc3N1C2` [Compound (2-1), (14S)-12,12-dimethyl-8-{3-[(trimethylgermyl)methoxy]-1H-pyrazol-1-yl}-2λ^6-thia-3,9,11,18,23-pentaazatetracyclo[17.3.1.111,14.05,10]tetracosa-1(23),5(10),6,8,19,21-hexaene-2,2,4-trione], below 1000 nM.
